According to US11535621B2, “Heterobicyclic amides as inhibitors of CD38” (Ribon Therapeutics, Inc., priority 2019, dated 2022):

These compounds were tested against Human CD38 (Homo sapiens (Human), UniProt P28907) (assay: CD38 enzyme assay). Settings: 2 nM CD38, NAD+ substrate, absorbance at 405 nm.
Assay type: biochemical
Procedure, shortened: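 IC50 values come from fitting % inhibition against compound concentration with a 4-parameter logistic, or a 3-parameter fit with top/bottom fixed at 100/0 or Hill at 1. Inhibition is scaled between DMSO wells and positive-control wells treated with a quinolinone CD38 inhibitor.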

Sequence of Human CD38 (P28907 whole entry): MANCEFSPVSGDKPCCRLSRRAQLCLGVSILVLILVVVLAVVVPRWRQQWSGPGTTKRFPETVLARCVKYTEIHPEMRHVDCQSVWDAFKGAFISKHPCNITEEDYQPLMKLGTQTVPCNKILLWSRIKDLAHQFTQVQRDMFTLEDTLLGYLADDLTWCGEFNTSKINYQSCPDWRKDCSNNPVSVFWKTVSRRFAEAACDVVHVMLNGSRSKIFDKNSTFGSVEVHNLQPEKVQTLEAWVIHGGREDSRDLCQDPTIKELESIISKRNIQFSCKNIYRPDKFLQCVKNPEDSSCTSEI

IC50 [µM] | SMILES
0.01 to 0.1 | O=C(N[C@H]1CC[C@H](NC2COC2)CC1)c1nc(-n2ccnc2)nc2cc[nH]c12 [Example 216, 2-(1H-imidazol-1-yl)-N-((1r,4r)-4-(oxetan-3-ylamino)cyclohexyl)-5H-pyrrolo[3,2-d]pyrimidine-4-carboxamide]
< 0.01 | CNC(=O)[C@H]1CC[C@H](NC(=O)c2nc(-n3ccnc3)cc3cn[nH]c23)CC1 [Example 217, 5-(1H-imidazol-1-yl)-N-((1r,4r)-4-(methylcarbamoyl)cyclohexyl)-1H-pyrazolo[3,4-c]pyridine-7-carboxamide]
0.01 to 0.1 | CN(CC(F)(F)F)[C@H]1CC[C@H](NC(=O)c2nc(-n3ccnc3)cc3cn[nH]c23)CC1 [Example 218, 5-(1H-imidazol-1-yl)-N-((1r,4r)-4-(methyl(2,2,2-trifluoroethyl)amino)cyclohexyl)-1H-pyrazolo[3,4-c]pyridine-7-carboxamide]
< 0.01 | N#CC[C@H]1CC[C@H](NC(=O)c2nc(-n3ccnc3)cc3cn[nH]c23)CC1 [Example 219, N-((1r,4r)-4-(cyanomethyl)cyclohexyl)-5-(1H-imidazol-1-yl)-1H-pyrazolo[3,4-c]pyridine-7-carboxamide]
0.01 to 0.1 | O=C(N[C@H]1CC[C@H](NCC(F)(F)F)CC1)c1nc(-n2ccnc2)nc2ccsc12 [Example 220, 2-(1H-imidazol-1-yl)-N-((1r,4r)-4-(2,2,2-trifluoroethylamino)cyclohexyl)thieno[3,2-d]pyrimidine-4-carboxamide]
0.01 to 0.1 | O=C(N[C@H]1CC[C@H](NCC(F)F)CC1)c1nc(-n2ccnc2)nc2ccsc12 [Example 221, N-((1r,4r)-4-(2,2-difluoroethylamino)cyclohexyl)-2-(1H-imidazol-1-yl)thieno[3,2-d]pyrimidine-4-carboxamide]
0.01 to 0.1 | O=C(N[C@H]1CC[C@H](NCCC(F)(F)F)CC1)c1nc(-n2ccnc2)nc2ccsc12 [Example 222, 2-(1H-imidazol-1-yl)-N-((1r,4r)-4-((3,3,3-trifluoropropyl)amino)cyclohexyl)thieno[3,2-d]pyrimidine-4-carboxamide]
0.01 to 0.1 | CN(C)CCOc1ccc(NC(=O)c2nc(-n3ccnc3)cc3cn[nH]c23)cn1 [Example 223, N-(6-(2-(dimethylamino)ethoxy)pyridin-3-yl)-5-(1H-imidazol-1-yl)-1H-pyrazolo[3,4-c]pyridine-7-carboxamide]
< 0.01 | O=C(Nc1ccc(N2CCNCC2)nc1)c1nc(-n2ccnc2)cc2cn[nH]c12 [Example 224, 5-(1H-imidazol-1-yl)-N-(6-(piperazin-1-yl)pyridin-3-yl)-1H-pyrazolo[3,4-c]pyridine-7-carboxamide]
< 0.01 | O=C(N[C@H]1CC[C@H](CO)CC1)c1nc(-n2ccnc2)cc2cn[nH]c12 [Example 225, N-((1r,4r)-4-(hydroxymethyl)cyclohexyl)-5-(1H-imidazol-1-yl)-1H-pyrazolo[3,4-c]pyridine-7-carboxamide]
0.01 to 0.1 | C[C@]1(O)CC[C@@H](NC(=O)c2nc(-n3ccnc3)cc3cn[nH]c23)CC1 [Example 226, N-((1s,4s)-4-hydroxy-4-methylcyclohexyl)-5-(1H-imidazol-1-yl)-1H-pyrazolo[3,4-c]pyridine-7-carboxamide]
0.01 to 0.1 | O=C(N[C@H]1CC[C@H](N2CC(F)(F)C2)CC1)c1nc(-n2ccnc2)cc2cn[nH]c12 [Example 227, N-((1r,4r)-4-(3,3-difluoroazetidin-1-yl)cyclohexyl)-5-(1H-imidazol-1-yl)-1H-pyrazolo[3,4-c]pyridine-7-carboxamide]
< 0.01 | O=C(N[C@H]1CC[C@H](C2(O)CC2)CC1)c1nc(-n2ccnc2)cc2cn[nH]c12 [Example 228, N-((1r,4r)-4-(1-hydroxycyclopropyl)cyclohexyl)-5-(1H-imidazol-1-yl)-1H-pyrazolo[3,4-c]pyridine-7-carboxamide]
< 0.01 | O=C(Nc1ccc(C(F)(F)F)nc1)c1nc(-n2ccnc2)cc2cn[nH]c12 [Example 229, 5-(1H-imidazol-1-yl)-N-(6-(trifluoromethyl)pyridin-3-yl)-1H-pyrazolo[3,4-c]pyridine-7-carboxamide]
0.01 to 0.1 | O=C(Nc1ccc(OCCN2CC3(COC3)C2)nc1)c1nc(-n2ccnc2)cc2cn[nH]c12 [Example 230, N-(6-(2-(2-oxa-6-azaspiro[3.3]heptan-6-yl)ethoxy)pyridin-3-yl)-5-(1H-imidazol-1-yl)-1H-pyrazolo[3,4-c]pyridine-7-carboxamide]
< 0.01 | O=C(Nc1ccc(OCC(F)(F)F)nc1)c1nc(-n2ccnc2)cc2cn[nH]c12 [Example 231, 5-(1H-imidazol-1-yl)-N-(6-(2,2,2-trifluoroethoxy)pyridin-3-yl)-1H-pyrazolo[3,4-c]pyridine-7-carboxamide]
0.01 to 0.1 | O=C(N[C@H]1CC[C@H](N2CCC(F)(F)C2)CC1)c1nc(-n2ccnc2)cc2cn[nH]c12 [Example 232, N-((1r,4r)-4-(3,3-difluoropyrrolidin-1-yl)cyclohexyl)-5-(1H-imidazol-1-yl)-1H-pyrazolo[3,4-c]pyridine-7-carboxamide]

IC50 [µM] | SMILES
0.01 to 0.1 | O=C(N[C@H]1CC[C@H](NC2COC2)CC1)c1nc(-n2ccnc2)cc2cn[nH]c12 [Example 233, 5-(1H-imidazol-1-yl)-N-((1r,4r)-4-(oxetan-3-ylamino)cyclohexyl)-1H-pyrazolo[3,4-c]pyridine-7-carboxamide]
0.01 to 0.1 | O=C(N[C@H]1CC[C@H](N2CC(C(F)(F)F)C2)CC1)c1nc(-n2ccnc2)cc2cn[nH]c12 [Example 234, 5-(1H-imidazol-1-yl)-N-((1r,4r)-4-(3-(trifluoromethyl)azetidin-1-yl)cyclohexyl)-1H-pyrazolo[3,4-c]pyridine-7-carboxamide]
0.01 to 0.1 | CC(F)(F)CN[C@H]1CC[C@H](NC(=O)c2nc(-n3ccnc3)nc3cc[nH]c23)CC1 [Example 235, N-((1r,4r)-4-((2,2-difluoropropyl)amino)cyclohexyl)-2-(1H-imidazol-1-yl)-5H-pyrrolo[3,2-d]pyrimidine-4-carboxamide]
< 0.01 | O=C(Nc1ccc2c(c1)CNC2)c1nc(-n2ccnc2)cc2cn[nH]c12 [Example 236, 5-(1H-imidazol-1-yl)-N-(isoindolin-5-yl)-1H-pyrazolo[3,4-c]pyridine-7-carboxamide]
< 0.01 | CC(=O)N1Cc2ccc(NC(=O)c3nc(-n4ccnc4)cc4cn[nH]c34)cc2C1 [Example 237, N-(2-acetylisoindolin-5-yl)-5-(1H-imidazol-1-yl)-1H-pyrazolo[3,4-c]pyridine-7-carboxamide]
< 0.01 | O=C(N[C@H]1CC[C@H](C2(O)CC2)CC1)c1nc(-n2ccnc2)nc2cn[nH]c12 [Example 238, N-((1r,4r)-4-(1-hydroxycyclopropyl)cyclohexyl)-5-(1H-imidazol-1-yl)-1H-pyrazolo[4,3-d]pyrimidine-7-carboxamide]
< 0.01 | C[C@]1(NCC(F)(F)F)CC[C@@H](NC(=O)c2nc(-n3ccnc3)cc3cn[nH]c23)CC1 [Example 239, 5-(1H-imidazol-1-yl)-N-((1s,4s)-4-methyl-4-((2,2,2-trifluoroethyl)amino)cyclohexyl)-1H-pyrazolo[3,4-c]pyridine-7-carboxamide]
0.1 to 1 | C[C@]1(NCC(F)(F)F)CC[C@H](NC(=O)c2nc(-n3ccnc3)cc3cn[nH]c23)CC1 [Example 240, 5-(1H-imidazol-1-yl)-N-((1r,4r)-4-methyl-4-((2,2,2-trifluoroethyl)amino)cyclohexyl)-1H-pyrazolo[3,4-c]pyridine-7-carboxamide]
0.01 to 0.1 | O=C(N[C@H]1CC[C@H](N2CC(C(F)(F)F)C2)CC1)c1nc(-n2ccnc2)nc2cn[nH]c12 [Example 241, 5-(1H-imidazol-1-yl)-N-((1r,4r)-4-(3-(trifluoromethyl)azetidin-1-yl)cyclohexyl)-1H-pyrazolo[4,3-d]pyrimidine-7-carboxamide]
0.01 to 0.1 | CNC(=O)[C@H]1CC[C@H](NC(=O)c2nc(-n3ccnc3)nc3cn[nH]c23)CC1 [Example 242, 5-(1H-imidazol-1-yl)-N-((1r,4r)-4-(methylcarbamoyl)cyclohexyl)-1H-pyrazolo[4,3-d]pyrimidine-7-carboxamide]
0.01 to 0.1 | CC(=O)NC[C@H]1CC[C@H](NC(=O)c2nc(-n3ccnc3)nc3cn[nH]c23)CC1 [Example 243, N-((1r,4r)-4-(acetamidomethyl)cyclohexyl)-5-(1H-imidazol-1-yl)-1H-pyrazolo[4,3-d]pyrimidine-7-carboxamide]
0.01 to 0.1 | CC(F)(F)CN[C@H]1CC[C@H](NC(=O)c2nc(-n3ccnc3)nc3cn[nH]c23)CC1 [Example 244, N-((1r,4r)-4-((2,2-difluoropropyl)amino)cyclohexyl)-5-(1H-imidazol-1-yl)-1H-pyrazolo[4,3-d]pyrimidine-7-carboxamide]
0.01 to 0.1 | O=C(NCCC(F)F)c1nc(-n2ccnc2)cc2cn[nH]c12 [Example 245, N-(3,3-difluoropropyl)-5-(1H-imidazol-1-yl)-1H-pyrazolo[3,4-c]pyridine-7-carboxamide]
0.01 to 0.1 | CC(F)(F)CN[C@H]1CC[C@H](NC(=O)c2nc(-n3ccnc3)nc3ccsc23)CC1 [Example 246, N-((1r,4r)-4-((2,2-difluoropropyl)amino)cyclohexyl)-2-(1H-imidazol-1-yl)thieno[3,2-d]pyrimidine-4-carboxamide]
0.01 to 0.1 | CN(CC(F)(F)F)[C@H]1CC[C@H](NC(=O)c2nc(-n3ccnc3)nc3cn[nH]c23)CC1 [Example 248, 5-(1H-imidazol-1-yl)-N-((1r,4r)-4-(methyl(2,2,2-trifluoroethyl)amino)cyclohexyl)-1H-pyrazolo[4,3-d]pyrimidine-7-carboxamide]
< 0.01 | O=C(N[C@H]1CC[C@H](OCCC(F)(F)F)CC1)c1nc(-n2ccnc2)cc2cn[nH]c12 [Example 249, 5-(1H-imidazol-1-yl)-N-((1r,4r)-4-(3,3,3-trifluoropropoxy)cyclohexyl)-1H-pyrazolo[3,4-c]pyridine-7-carboxamide]
0.01 to 0.1 | O=C(N[C@H]1CC[C@H](CNCC(F)(F)F)CC1)c1nc(-n2ccnc2)cc2cn[nH]c12 [Example 250, 5-(1H-imidazol-1-yl)-N-((1r,4r)-4-(((2,2,2-trifluoroethyl)amino)methyl)cyclohexyl)-1H-pyrazolo[3,4-c]pyridine-7-carboxamide]
